Experimental data published in patent US10696642B2, “TEAD transcription factor autopalmitoylation inhibitors” (The General Hospital Corporation, priority 2015, dated 2020).

Each molecule was assayed against T1, TEAD2 (Homo sapiens, UniProt Q15562) (assay: In vitro palmitoylation assay to measure potency of TEAD palmitoylation inhibitors (Example 11)). Settings: compound at 5 μM, 3 μM alkyne palmitoyl-CoA, normalized to DMSO control.
T1 construct: The cDNA encoding human TEAD2 (residues 217-447, TEAD2^217-447) was cloned into a pET29 vector; made in house; host or cells: E. coli BL21(DE3)-T1R
Type: biochemical
Experimental: Recombinant His6TEAD2 (500 ng) protein was incubated with DMSO control or TEAD inhibitors (MGH-CP1 and its analogues) at 5 μM for 30 min. 3 μM of alkyne palmitoyl-CoA (Cayman Chemical) were then added into the reaction mixture and incubated for 2 h in 50 mM MES, pH 6.4. The reaction was quenched with 1% SDS followed by Click reaction with biotin-azide. Samples were analyzed by SDS-PAGE and streptavidin HRP. Bands intensity obtained from streptavidin blot were quantified using Image J (NIH), and normalized to DMSO control. The percentage of inhibition was determined by comparing to DMSO control and non-palmitoylated TEAD2. To determine the dose-dependency of the inhibitors, various concentrations of the compounds (10 nM to 20 μM) were incubated with TEAD2 protein for 30 min, and then 3 μM of alkyne palmitoyl-CoA (Cayman Chemical) were then added into the reaction mixture and incubated for 2 h in 50 mM MES, pH 6.4. The reaction was then quenched and analyzed similarly as descried above. The level of palmitoylation was then determined by the streptavidin blot, and plotted by Prism to determine the IC50 values.
Compounds (4) to (53) were tested for activity in inhibiting TEAD palmitoylation in the assay of Example 11. The data for the compounds provided in Table 2 as a percentage of inhibition of TEAD2 palmitoylation by the compound at a concentration of 5 μM.

T1 sequence (Q15562 217-447): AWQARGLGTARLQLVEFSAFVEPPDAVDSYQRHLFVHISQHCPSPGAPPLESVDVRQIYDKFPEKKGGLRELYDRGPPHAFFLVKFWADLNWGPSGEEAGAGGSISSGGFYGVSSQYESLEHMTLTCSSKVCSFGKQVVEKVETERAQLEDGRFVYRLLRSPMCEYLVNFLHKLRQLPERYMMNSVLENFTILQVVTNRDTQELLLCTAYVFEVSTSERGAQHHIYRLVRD

SMILES | inhibition at 5 µM [%]
CC(C)(C)c1ccc(NC(=O)CSc2nnc[nH]2)cc1 | 30
CC(C)c1ccc(NC(=O)CSc2nnc[nH]2)cc1 | 24
O=C(CSc1nnc[nH]1)Nc1ccc(-c2ccccc2)cc1 | 89
Cn1cnnc1SCC(=O)Nc1ccc(-c2ccccc2)cc1 | 23
O=C(CSc1nnc[nH]1)Nc1ccc(-c2cccc3ccccc23)cc1 | 90
O=C(CSc1nnc[nH]1)Nc1ccc(-c2ccccc2)cc1Br | 89
O=C(CSc1nnc[nH]1)Nc1ccc(-c2cc3ccccc3c3ccccc23)cc1 | 56
O=C(CSc1nnc[nH]1)Nc1ccc(-c2ccc(C3CCCCC3)cc2)cc1 | 93
O=C(CSc1nnc[nH]1)Nc1ccc(-c2cc(C(F)(F)F)cc(C(F)(F)F)c2)cc1 | 95
CC(C)(C)c1ccc(-c2ccc(NC(=O)CSc3nnc[nH]3)cc2)cc1 | 100
O=C(CSc1nnc[nH]1)Nc1ccc(-c2cc(-c3ccccc3)cc(-c3ccccc3)c2)cc1 | 68
Cc1cc(C)cc(-c2ccc(NC(=O)CSc3nnc[nH]3)cc2)c1 | 100
CCCc1ccc(-c2ccc(NC(=O)CSc3nnc[nH]3)cc2)cc1 | 97
O=C(CSc1nnc[nH]1)Nc1ccc(-c2cccc(C(F)(F)F)c2)cc1 | 88
O=C(CSc1nnc[nH]1)Nc1ccc(-c2cccc(-c3ccccc3)c2)cc1 | 70
O=C(Nc1ccc(C23CC4CC(CC(C4)C2)C3)cc1)c1cccnc1Nc1cccc(C(F)(F)F)c1 | < 10
O=C(CSc1nnc[nH]1)N(c1cccc(C(F)(F)F)c1)c1ccccn1 | < 10
O=C(CSc1nnc[nH]1)Nc1ccc(-c2cccc(-c3cccnc3)c2)cc1 | 100
O=C(CSc1nnc[nH]1)Nc1ccc(-c2cccc(-c3ccncc3)c2)cc1 | 100
O=C(CSc1nnc[nH]1)Nc1ccc(-c2cc(-c3cccnc3)cc(-c3cccnc3)c2)cc1 | 95
O=C(CSc1nnc[nH]1)Nc1ccc(-c2cc(-c3ccncc3)cc(-c3ccncc3)c2)cc1 | 90
O=C(CSc1nnc[nH]1)Nc1ccc(-c2cc(-c3ccccc3)cc(C(F)(F)F)c2)cc1 | 90
O=C(CSc1nnc[nH]1)Nc1ccc(-c2ccncc2)cc1 | 90
Cc1cc(-c2ccc(NC(=O)CSc3nnc[nH]3)cc2)cc(C)n1 | 95
O=C(CSc1nnc[nH]1)Nc1ccc(-c2cc(-c3ccccc3)nc(-c3ccccc3)c2)cc1 | 78
Cc1cccc(C)c1-c1ccc(NC(=O)CSc2nnc[nH]2)cc1 [drawing 42] | 100

Next, values leading:

inhibition at 5 µM [%] | SMILES
80 | COc1ccc(-c2nnc(SCC(=O)Nc3ccc(C45CC6CC(CC(C6)C4)C5)cc3)[nH]2)cc1
70 | Cn1c(SCC(=O)Nc2ccc(C34CC5CC(CC(C5)C3)C4)cc2)nnc1-c1ccccc1
10 | CCn1c(SCC(=O)Nc2ccc(C34CC5CC(CC(C5)C3)C4)cc2)nnc1-c1ccccc1O
10 | CCn1c(CN2CCOCC2)nnc1SCC(=O)Nc1ccc(C23CC4CC(CC(C4)C2)C3)cc1
10 | Cn1cnnc1SCC(=O)Nc1ccc(C23CC4CC(CC(C4)C2)C3)cc1
12 | Cn1cnnc1SCC(=O)Nc1ccc(C23CC4CC(CC(C4)C2)C3)cc1Br
87 | O=C(CSc1nnc[nH]1)Nc1ccc(C23CC4CC(CC(C4)C2)C3)cc1Br
< 10 | O=C(CS(=O)(=O)c1nnc[nH]1)Nc1ccc(C23CC4CC(CC(C4)C2)C3)cc1
45 | O=C(CNc1nnc[nH]1)Nc1ccc(C23CC4CC(CC(C4)C2)C3)cc1
100 | O=C(CCSc1nnc[nH]1)Nc1ccc(C23CC4CC(CC(C4)C2)C3)cc1
68 | O=C(CSc1nncs1)Nc1ccc(C23CC4CC(CC(C4)C2)C3)cc1
39 | O=C(CSc1nnc[nH]1)Oc1ccc(C23CC4CC(CC(C4)C2)C3)cc1
40 | CCOc1ccc2nc(SCC(=O)Nc3ccc(C45CC6CC(CC(C6)C4)C5)cc3)sc2c1
53 | Cc1ccc(-c2nnc(SCC(=O)Nc3ccc(C45CC6CC(CC(C6)C4)C5)cc3)o2)cc1
47 | CCOc1ccc2nc(SCCC(=O)Nc3ccc(C45CC6CC(CC(C6)C4)C5)cc3)sc2c1
100 | O=C(CCCSc1nnc[nH]1)Nc1ccc(C23CC4CC(CC(C4)C2)C3)cc1
80 | Cc1ccc(-c2nnc(SCCC(=O)Nc3cccc(C45CC6CC(CC(C6)C4)C5)c3)o2)cc1
76 | Cc1nnc(SCC(=O)Nc2ccc(C34CC5CC(CC(C5)C3)C4)cc2)o1
80 | Cc1nnc(SCCC(=O)Nc2cccc(C34CC5CC(CC(C5)C3)C4)c2)o1
56 | O=C(CSc1nnc(-c2ccc(Cl)cc2Cl)o1)Oc1ccc(C23CC4CC(CC(C4)C2)C3)cc1
63 | O=C(CCSc1nnc(-c2ccc(Cl)cc2Cl)o1)Nc1cccc(C23CC4CC(CC(C4)C2)C3)c1
58 | Cc1ccc(-c2nnc(SCCCC(=O)Nc3ccc(C45CC6CC(CC(C6)C4)C5)cc3)o2)cc1
85 | O=C(CSc1nnc[nH]1)Nc1ccc(C23CC4CC(CC(C4)C2)C3)cc1 [drawing 23]
38 | Nc1nncn1CC(=O)Nc1ccc(C23CC4CC(CC(C4)C2)C3)cc1 [drawing 55]

What follows are molecules tested on HuH7 cells (assay: Colony formation, HuH7). Settings: tested at 0-20 μM (FIG. 29).
Type: cell-based, human
Experimental: Assays were performed to measure inhibition of cancer cell proliferation in HuH7 cells by compounds (4), (22) and (36), which were each tested at 0-20 μM.

SMILES | inhibition of cancer cell proliferation / colony formation in HuH7 cells
Cc1cccc(C)c1-c1ccc(NC(=O)CSc2nnc[nH]2)cc1 [Compound 23] | effective
Nc1nncn1CC(=O)Nc1ccc(C23CC4CC(CC(C4)C2)C3)cc1 [Compound 36] | less effective
